# According to patent publication US20230392179A1 (SOOCHOW UNIVERSITY, priority 2021, published 2023):
# Tested on: Mycobacterium smegmatis containing plasmid PMV261-Kana^R-65S-RecA intein
# Assay: Intein splicing inhibitor screening system: growth (OD600) of Mycobacterium smegmatis carrying Kana^R-65S-RecA intein in kanamycin medium
# Settings: 20 μM cisplatin, kanamycin 50 μg/mL plus hygromycin, 37° C., 100 h
smiles,measurement,value
N.N.[Cl][Pt][Cl] [cisplatin],inhibition rate of growth of Mycobacterium smegmatis containing plasmid PMV261-Kana^R-65S-RecA intein,62%
